These results are taken from patent publication US20180360037A1, “STEREOISOMER OF BROMADIOLONE, COMPOSITION AND RODENTICIDE BAIT COMPRISING SAME, AND METHOD FOR CONTROLLING TARGET RODENT PESTS” (priority 2015, published 2018).

Data set [1] is classed as in vivo, rat. As to conditions: for concentration of each enantiomer in rat liver: mixture of diastereoisomers, about 13 mg/kg per os on D0, from D+3, FIG. 3. Here is the method: Separation of the configurational stereoisomers of bromadiolone is performed by high-pressure liquid chromatography (HPLC) on a LUX® Cellulose-1 chiral column (Phenomenex, Le Pecq, France) containing a chiral stationary phase constituted of particles of cellulose tris(3,5-dimethylphenyl carbamate), said particles having a mean size of 3 μm and having a mean pore size of 1000 Å. A mixture formed from acetonitrile (A) and water comprising 0.1% by volume of formic acid (B), with an A/B volume ratio of 80/20 and with a flow rate of 0.25 mL/minute in the chromatography column, is used as mobile phase. The concentration of the composition to be analysed is 1 μg of bromadiolone per millilitre of acetonitrile and the volume injected onto the column is 1 μL. Detection is performed by tandem mass spectrometry (MS/MS) in negative electrospray ionization (ESI) mode. The temperature of the nebulizer gas is 350° C. and its flow rate is 8 L/minute. The pressure of the nebulizer gas is brought to 2700 hPa. In particular, the MRM (“Multiple Reaction Monitoring”) transitions m/z 525.1→250.1 and m/z 525.1→181, corresponding to the bromadiolone signal, are detected.
About 0.525 g (±0.025 g) of rat liver is weighed out accurately and placed in a 50 mL polypropylene tube. 10 mL of acetone are added and the suspension is homogenized using an Ultra-Turrax® homogenizer/disperser for a time of about 30 seconds. The homogenizer/disperser shaft is rinsed with hot water and then twice with 20 mL of acetone in a polypropylene tube. The homogenate is centrifuged for 5 minutes at a centrifugation speed of 3000 rpm (revolutions per minute). The supernatant is collected and transferred into a test tube. The sample is subjected to evaporation under a stream of nitrogen (N2) at a temperature of 40° C. so as to form a dry extract.
1 mL of acetonitrile is added to the tube containing the dry extract so as to dissolve it. The acetonitrile solution is washed twice successively with 1 mL of hexane. The lipid-free extract is dried under a stream of nitrogen (N2) at a temperature of 40° C. and is then taken up in 0.5 mL of methanol and dissolved by vortex stirring. 0.5 mL of ultra-pure (Milli-Q) water is then added. The sample is vortex-homogenized.
1 mL of dichloromethane (CH2Cl2), then 1 mL of methanol (CH3OH), then 1 mL of ultra-pure (Milli-Q) water are passed through an Oasis HLB 1 cc cartridge (WAT094225, Waters). The lipid-free liver extract (1 mL MeOH/Milli-Q H2O) containing bromadiolone is then loaded onto the top of the preconditioned cartridge. The liver extract penetrates through the cartridge by gravity on contact with the solid phase of the cartridge. 1 mL of washing solution formed from methanol (CH3OH) and ultra-pure water (H2O) in a 90/10 volume proportion is loaded onto the top of the cartridge. The cartridge is dried by suction under vacuum connected to the bottom of the cartridge. 1 mL of eluting solution formed from dichloromethane (CH2Cl2) and methanol (CH3OH) in a 90/10 volume proportion is then loaded onto the top of the cartridge and an eluate comprising bromadiolone is collected at the bottom of the cartridge. The solvent of the eluate is evaporated off under a stream of nitrogen (N2) at a temperature of 40° C. The sample is taken up in 0.5 mL of acetonitrile and the acetonitrile solution containing bromadiolone is filtered through a 0.2 μm filter. […]

Data set [2] relates to male laboratory rats (OFA, Sprague-Dawley 200 g). Kind of data set: Anticoagulant power of each configurational stereoisomer of bromadiolone (coagulation time, Quick time, of plasma of tube-fed rats). It is filed as in vivo, rat. As to conditions: for anticoagulant effect (coagulation time, Quick time): 1.5 mg of enantiomer per kg rat by tube feeding on D0, up to D3, FIG. 4. Here is the method:
The following are administered to male laboratory rats (OFA, Sprague-Dawley 200 g) by tube feeding on D0: a composition comprising enantiomer E1 of said diastereoisomer D12 in a proportion of 1.5 mg of said enantiomer E1 per kilogram of rat; or a composition comprising enantiomer E2 of said diastereoisomer D1,2 in a proportion of 1.5 mg of said enantiomer E2 per kilogram of rat; or a composition comprising enantiomer E3 of said diastereoisomer D3,4 in a proportion of 1.5 mg of said enantiomer E3 per kilogram of rat; or a composition comprising enantiomer E4 of said diastereoisomer D3,4 in a proportion of 1.5 mg of said enantiomer E4 per kilogram of rat.
The rats receive vitamin K1 daily in a proportion of 0.1 unit of vitamin per 200 g of rat so as to keep them alive for 7 days or 14 days. However, the administration of vitamin K1 is stopped 48 hours before the rats are euthanized so as to allow evaluation of the Quick time without interference with the supplementation by tube feeding.
On these rats, blood is collected on D1, D3, D7 and D14 and measurement of the coagulation time (Quick time, expressed in seconds) of the plasma is performed using the “Neoplastine CI Determination of Prothrombin Time” kit (Diagnostica Stago, Asnière, France) by measurement on a Thrombotimer Option 2 Plus machine (Behnk Electronik, Norderstedt, Germany).

The mark [3] stands for this setting: summary statement of the inventors.

Like-named read-outs stand apart in the source and are kept apart here.

Consider `O=c1oc2ccccc2c(O)c1C(CC(O)c1ccc(-c2ccc(Br)cc2)cc1)c1ccccc1` (single isomer, unassigned) [enantiomer E1, 3-[3-(4′-bromo[1,1′-biphenyl]-4-yl)-3-hydroxy-1-phenylpropyl]-4-hydroxy-2H-1-benzopyran-2-one], for which the “concentration of each enantiomer in rat liver” value (shortened to “concentration”) in data set [1] (listed as E1) was “remains in the rat liver”.

For the compound `O=c1oc2ccccc2c(O)c1C(CC(O)c1ccc(-c2ccc(Br)cc2)cc1)c1ccccc1` (single isomer, unassigned) [enantiomer E2, 3-[3-(4′-bromo[1,1′-biphenyl]-4-yl)-3-hydroxy-1-phenylpropyl]-4-hydroxy-2H-1-benzopyran-2-one], the “concentration” value in data set [1] (listed as E2) is reported as “only enantiomer E1 remains in the rat liver”.

For `O=c1oc2ccccc2c(O)c1C(CC(O)c1ccc(-c2ccc(Br)cc2)cc1)c1ccccc1` (single isomer, unassigned) [enantiomer E3, 3-[3-(4′-bromo[1,1′-biphenyl]-4-yl)-3-hydroxy-1-phenylpropyl]-4-hydroxy-2H-1-benzopyran-2-one], the “concentration” value in data set [1] (listed as E3) is on record as “only enantiomer E1 remains in the rat liver”. Also, the “anticoagulant effect (coagulation time, Quick time)” value in data set [2] (listed as E3) was “contrary to the ingestion of 1.5 mg of said enantiomer E3”.

With `O=c1oc2ccccc2c(O)c1C(CC(O)c1ccc(-c2ccc(Br)cc2)cc1)c1ccccc1` (single isomer, unassigned) [enantiomer E4, 3-[3-(4′-bromo[1,1′-biphenyl]-4-yl)-3-hydroxy-1-phenylpropyl]-4-hydroxy-2H-1-benzopyran-2-one], the “concentration” value in data set [1] (listed as E4) is reported as “only enantiomer E1 remains in the rat liver”. For the same compound, the “persistence in the liver of target rodent pests” value in data set [1] (setting [3]) is “sufficient to be rodenticidal”. Moreover, in data set [2] (listed as E4), the “anticoagulant effect (coagulation time, Quick time)” value is on record as “sufficient to maintain an anticoagulant effect at least up to D3”. The “anticoagulant activity compared with enantiomer E3” value in data set [2] (setting [3]) is given as “higher anticoagulant activity than the anticoagulant activity of said enantiomer E3”.
